We go through 4 compounds from patent US12259388B2, “Cofilin phosphorylation for quantifying CD4 T cell damage and predict CD4 T cell recovery from anti-retroviral therapy” (VIRONGY L.L.C., priority 2018, dated 2025).

Experiment [1] concerns cofilin phosphorylation in A3R5.7 CD4 T cells. In words: Western blot for p-cofilin and cofilin after R10015 treatment. Type of experiment: cell-based, human. The protocol: (§1) FIG. 3. Quantification of effects of cofilin hyperactivation on T cell migration. (A) A3R5.7 T cells were treated with different dosages of R10015 for one hour. Phospho-cofilin and total cofilin were quantified by Western blot. (B) The relative ratio of p-cofilin/cofilin in response to R10015 treatment was plotted (n=4 independent experiments). (C) R10015 inhibits cofilin phosphorylation and T cell chemotaxis in response to CXCL12. A3R5.7 cells were treated with different dosages of R10015 for one hour, and then added to the upper chamber of a 24-well transwell plate. The lower chamber was filled with CXCL12 (40 ng/ml), and cell migration to the lower chamber was quantified (n=3 independent experiments). (D) The linear correlation between T cell migration and levels of cofilin phosphorylation. The X-axis is the relative ratio of p-cofilin/cofilin derived from (B); the Y-axis is the number of migrating cells derived from (C).
T cell migration is controlled by cycles of cofilin phosphorylation and dephosphorylation, which are regulated by the LIM-domain kinase (LIMK) through serine 3 phosphorylation (27, 54). To quantify the direct effect of cofilin hyperactivation on T cell migration, we used a recently discovered LIMK inhibitor, R10015 (55), to block cofilin phosphorylation in A3R5.7 CD4 T cells. We then performed CXCL12-induced T cell chemotaxis in the presence of cofilin hyperactivation. […]

The subject of experiment [2] is A3R5.7 CD4 T cells. As to the kind of experiment: CXCL12-induced T cell chemotaxis (transwell) assay. Type of experiment: cell-based, human. The conditions noted are these: CXCL12 40 ng/ml. The procedure:
as §1, with “(D) The linear correlation between T cell migration and levels of cofilin phosphorylation. The X-axis is the relative ratio of p-cofilin/cofilin derived from (B); the Y-axis is the number of migrating cells derived from (C).” left out
T cell migration is controlled by cycles of cofilin phosphorylation and dephosphorylation, which are regulated by the LIM-domain kinase (LIMK) through serine 3 phosphorylation (27, 54). To quantify the direct effect of cofilin hyperactivation on T cell migration, we used a recently discovered LIMK inhibitor, R10015 (55), to block cofilin phosphorylation in A3R5.7 CD4 T cells. […]
A half million cells were resuspended into 100 μl RPMI-1640 medium and then added to the upper chamber of a 24-well transwell plate (Corning, Corning, NY). […] The plate was incubated at 37° C. for 2 hours, and then the upper chamber was removed and cells in the lower chamber were counted. […]

Experiment [3] has as its system cofilin, LIMK in resting CD4 T cells. The conditions noted are these: cited from earlier work; for effect on cofilin activation / phosphorylation: resting CD4 T cells.
Experiment [4] concerns HIV-1. The conditions noted are these: cited from earlier work.

Consider `COC(=O)c1ccc2nc(C3CCN(c4ncnc5[nH]cc(Cl)c45)CC3)[nH]c2c1` [R10015], for which the “inhibition of cofilin phosphorylation” value in experiment [1] (A3R5.7 CD4 T cells, different dosages of R10015 for one hour, ratio p-cofilin/cofilin) is on record as “dosage-dependent inhibition of cofilin phosphorylation”. Besides, the “cofilin phosphorylation reduced to” value in experiment [1] (at around 15 M of R10015, A3R5.7 cells, one hour) was “around 50%”. Also, in experiment [2] (A3R5.7 CD4 T cells, at 50% reduction in cofilin phosphorylation), the “decrease in cell migration” value is recorded as 20-40%. Also, the “T cell chemotaxis in response to CXCL12” value in experiment [2] (A3R5.7 cells treated one hour) is “inhibits”.

On to `C=C1[C@@H](O)[C@@H]2O[C@]3(CC[C@H](/C=C/[C@@H](C)[C@@H]4CC(C)=C[C@@]5(O[C@H](C[C@@](C)(O)C(=O)O)CC[C@H]5O)O4)O3)CC[C@H]2O[C@@H]1[C@@H](O)C[C@H](C)[C@H]1O[C@@]2(CCCCO2)CC[C@H]1C` [okadaic acid], for which the “effect on cofilin activation / phosphorylation” value in experiment [3] is listed as “increase cofilin phosphorylation”. Besides, the “effect on LIMK” value in experiment [3] (transient treatment of resting CD4 T cells) is recorded as “activates LIMK”. In experiment [4], the “effect on HIV latent infection of resting CD4 T cells” value (from here on “effect on HIV latent infection”) is reported as “promotes HIV latent infection”.

As for `CN[C@@H]1C[C@H]2O[C@@](C)([C@@H]1OC)n1c3ccccc3c3c4c(c5c6ccccc6n2c5c31)C(=O)NC4` [staurosporine], the “effect on cofilin activation / phosphorylation” value in experiment [3] is listed as “induce gradual cofilin activation”. Also, the “effect on HIV latent infection” value in experiment [4] is on record as “enhances HIV latent infection”.

For pertussis toxin, the “effect on cofilin activation / phosphorylation” value in experiment [3] is “inhibits cofilin activation”. Besides, the “effect on HIV latent infection” value in experiment [4] is “inhibits”.
